{"source": "patent US11891401B2", "about": "“Solid forms of N-(4-fluoro-3-(6-(3-methylpyridin-2-yl)-[1,2,4]triazolo[1,5-a]pyrimidin-2-yl)phenyl)-2,4-dimethyloxazole-5-carboxamide” (NOVARTIS AG, priority 2018, dated 2024)", "type_in_all_cases": "physicochemical", "key": {"[1]": {"assay": "Crystal form after grinding, compression and wet granulation", "conditions": "compression and wet granulation (water and ethanol), listed as free form hydrate"}, "[2]": {"assay": "Form after storage at 92% RH", "conditions": "24 hrs"}, "[3]": {"assay": "Dynamic Vapor Sorption (DVS) moisture absorption / hygroscopicity", "conditions": "for solid form after DVS: after DVS testing"}, "[4]": {"assay": "Form after degradation at 160° C."}, "[5]": {"assay": "Solubility in various media at 25° C. after 24 hours equilibration (UPLC)", "conditions": "for final pH of the sample (in parentheses): after 24 hours equilibration"}, "[6]": {"assay": "Solid-state chemical stability: degradation products by UPLC/HPLC after stress storage", "conditions": "for DP % (Degradation Product), Bulk (UPLC): Solid state", "experimental": "(§1) Compound I, Compound I fumaric acid co-crystals and amorphous Compound I fumaric acid samples (10 mg) were placed in an open vial at 50° C./75% RH and 80° C./75% RH chamber for one week. A same amount of sample was placed in a closed vial at 50° C. and 80° C. chamber for 1 week. The samples were exposed to 100 k Lux light for 12 h at 25° C. Solids were examined by XRPD for physical stability determination and by UPLC for chemical stability determination. The color of the samples was evaluated by visual observation. Table 5 compares the stability of Compound I and its various solid forms."}, "[7]": {"assay": "Solid-state physical stability: form change by XRPD after stress storage", "conditions": "for Bulk (XRPD): Solid state", "experimental": "as §1"}, "[8]": {"conditions": "50° C., 50° C./75& RH, 80° C. and 80° C./75% RH for one week"}, "[9]": {"conditions": "1 week 50° C., closed container"}, "[10]": {"conditions": "1 week 80° C., closed container"}}}
{"smiles": "Cc1nc(C)c(C(=O)Nc2ccc(F)c(-c3nc4ncc(-c5ncccc5C)cn4n3)c2)o1", "note": "[Free Form, N-(4-fluoro-3-(6-(3-methylpyridin-2-yl)-[1,2,4]triazolo[1,5-a]pyrimidin-2-yl)phenyl)-2,4-dimethyloxazole-5-carboxamide]", "values": [{"measurement": "crystal form after grinding, compression and wet granulation", "setting": "[1]", "value": "converted to a different hydrate or a hydrate mixture"}, {"measurement": "form after storage at 92% RH", "setting": "[2]; listed as Compound I free form", "value": "changes into a dihydrate"}, {"measurement": "form after storage at 92% RH", "setting": "[2]; listed as free form hydrate", "value": "dihydrate"}, {"measurement": "solid form after DVS", "setting": "[3]; listed as Compound I free form", "value": "changes into a dihydrate"}, {"measurement": "solid form after DVS", "setting": "[3]; listed as free form hydrate", "value": "form change that is likely a dihydrate"}, {"measurement": "moisture absorption by DVS", "setting": "[3]; at 25° C., RH not stated", "value": 8.9, "unit": "%"}, {"measurement": "hygroscopicity", "setting": "[3]; by DVS, listed as free form hydrate", "value": "hygroscopic"}, {"measurement": "form after degradation at 160° C.", "setting": "[4]", "value": "converts to an amorphous form"}, {"measurement": "final pH of the sample (in parentheses)", "setting": "[5]; 0.01N HCl pH 2.0", "value": 2.10}, {"measurement": "solubility", "setting": "[5]; 0.1N HCl pH 1.0, 25° C., 24 hours equilibration", "value": 232, "unit": "µg/mL"}, {"measurement": "final pH of the sample (in parentheses)", "setting": "[5]; 0.1N HCl pH 1.0", "value": 1.00}, {"measurement": "solubility", "setting": "[5]; FaSSIF pH 6.5, 25° C., 24 hours equilibration", "value": 4, "unit": "µg/mL"}, {"measurement": "final pH of the sample (in parentheses)", "setting": "[5]; FaSSIF pH 6.5", "value": 6.31}, {"measurement": "solubility", "setting": "[5]; FeSSIF pH 5.8, 25° C., 24 hours equilibration", "value": 6, "unit": "µg/mL"}, {"measurement": "final pH of the sample (in parentheses)", "setting": "[5]; FeSSIF pH 5.8", "value": 5.73}, {"measurement": "solubility", "setting": "[5]; SGF pH 2.0, 25° C., 24 hours equilibration", "value": 29, "unit": "µg/mL"}, {"measurement": "final pH of the sample (in parentheses)", "setting": "[5]; SGF pH 2.0", "value": 1.99}, {"measurement": "solubility", "setting": "[5]; acetate buffer pH 4.7, 25° C., 24 hours equilibration", "value": 2, "unit": "µg/mL"}, {"measurement": "final pH of the sample (in parentheses)", "setting": "[5]; acetate buffer pH 4.7", "value": 4.68}, {"measurement": "solubility", "setting": "[5]; borate buffer pH 10.0, 25° C., 24 hours equilibration", "value": 2, "unit": "µg/mL"}, {"measurement": "final pH of the sample (in parentheses)", "setting": "[5]; borate buffer pH 10.0", "value": 8.58}, {"measurement": "solubility", "setting": "[5]; phosphate buffer pH 6.8, 25° C., 24 hours equilibration", "value": 1, "unit": "µg/mL"}, {"measurement": "final pH of the sample (in parentheses)", "setting": "[5]; phosphate buffer pH 6.8", "value": 6.65}, {"measurement": "solubility at 24 h", "setting": "[5]; simulated gastric fluid, thermodynamic from solid, 0.01N HCl pH 2.0, 25° C., 24 hours equilibration", "value": 17, "unit": "µg/mL"}, {"measurement": "solubility", "setting": "[5]; water, 25° C., 24 hours equilibration", "value": 9, "unit": "µg/mL"}, {"measurement": "final pH of the sample (in parentheses)", "setting": "[5]; water", "value": 8.18}, {"measurement": "chemical stability in bulk", "setting": "[6]; [8]", "value": "chemically stable"}, {"measurement": "stability upon exposure to light", "setting": "[6]; 1200 kLuxh light for 12 hrs", "value": "stable"}, {"measurement": "DP % (Degradation Product), Bulk (UPLC)", "setting": "[6]; [9]", "value": 0.6, "unit": "%"}, {"measurement": "DP % (Degradation Product), Bulk (UPLC)", "setting": "[6]; 1 week 50° C./75% r.h.", "value": 0.6, "unit": "%"}, {"measurement": "DP % (Degradation Product), Bulk (UPLC)", "setting": "[6]; [10]", "value": 0.6, "unit": "%"}, {"measurement": "DP % (Degradation Product), Bulk (UPLC)", "setting": "[6]; 1 week 80° C./75% r.h.", "value": 0.6, "unit": "%"}, {"measurement": "DP % (Degradation Product), Amber vial (HPLC)", "setting": "[6]; Xenon light (approx. 1200 kLuxh), amber vial", "value": 0.8, "unit": "%"}, {"measurement": "DP % (Degradation Product), Clear vial (HPLC)", "setting": "[6]; Xenon light (approx. 1200 kLuxh), clear vial", "value": 0.6, "unit": "%"}, {"measurement": "form change in bulk", "setting": "[7]; [8]", "value": "form changes were noticed"}, {"measurement": "form obtained upon exposure to 75% RH humidity", "setting": "[7]; 75% RH at both temperatures (50° C. and 80° C.), one week", "value": "a dihydrate was obtained"}, {"measurement": "Bulk (XRPD)", "setting": "[7]; [9]", "value": "no change"}, {"measurement": "Bulk (XRPD)", "setting": "[7]; 1 week 50° C./75% r.h.", "value": "change"}, {"measurement": "Bulk (XRPD)", "setting": "[7]; [10]", "value": "change"}, {"measurement": "form observed", "setting": "[7]; under 50° C./75% RH", "value": "mixture of the free form hydrate and anhydrous modification"}]}
